Assay results published in DBAASP.
≈ marks a conversion by molar mass, not a printed value. Each block holds one molecule with its values, some of them ahead of it.

How the values were obtained:
Assay in all cases: ≥ marks a high value that may be exact or a test limit, other limits are often not marked, values filed in µg/mL are converted to µM
[1] = system: Escherichia coli ATCC 25922
[2] = system: Staphylococcus aureus ATCC 29213
[3] = system: Pseudomonas aeruginosa ATCC 27853
[4] = system: Candida albicans ATCC 90028
[5] = system: Enterococcus faecalis ATCC 29212
[6] = system: Staphylococcus epidermidis ATCC 12228
Escherichia coli UB1005 = system: Escherichia coli UB1005
[7] = system: Salmonella enterica subsp. enterica serovar Typhimurium C77-31
[8] = system: Staphylococcus aureus ATCC 25923
[9] = system: Staphylococcus aureus ATCC 6538
[10] = system: Pseudomonas aeruginosa ATCC 9027
Bacillus subtilis = system: Bacillus subtilis
Escherichia coli = system: Escherichia coli
Staphylococcus aureus = system: Staphylococcus aureus
Candida albicans = system: Candida albicans

- MIC [1]: 20 µM (≈ 31.7 µg/mL)
- MIC [2]: 40 µM (≈ 63.3 µg/mL)
- MIC [3]: 40 µM (≈ 63.3 µg/mL)
- MIC [4]: ≥ 40 µM
Compound: CC[C@H](C)[C@H](NC(=O)[C@H](CCCN=C(N)N)NC(=O)[C@@H](N)CCCCN)C(=O)N[C@H](C(=O)N[C@@H](CCC(N)=O)C(=O)N[C@@H](CCCN=C(N)N)C(=O)N[C@@H](CCCCN)C(=O)N[C@@H](CCCCN)C(=O)N[C@@H](CC(=O)O)C(=O)N[C@@H](CCCCN)C(=O)N[C@@H](CCCCN)C(=O)N[C@@H](CCCN=C(N)N)C(=O)O)C(C)C [KRIVQRKKDKKR]

- MIC [5]: > 128 µM
- MIC [6]: > 128 µM
- MIC [2]: > 128 µM
- MIC (Escherichia coli UB1005): ≥ 128 µM
- MIC [7]: ≥ 128 µM
Compound: CC[C@H](C)[C@H](NC(=O)[C@H](CCCCN)NC(=O)[C@H](CCCCN)NC(=O)[C@H](CC(C)C)NC(=O)[C@H](CCCN=C(N)N)NC(=O)[C@@H]1CSSC[C@H](NC(=O)[C@H](CCCN=C(N)N)NC(=O)[C@H](CC(C)C)NC(=O)[C@H](CCCN=C(N)N)NC(=O)[C@H](CCCN=C(N)N)NC(=O)[C@H](Cc2ccccc2)NC(=O)[C@@H](N)CCCN=C(N)N)C(=O)N[C@@H](CCCCN)C(=O)N[C@@H]([C@@H](C)O)C(=O)N[C@@H](CCCN=C(N)N)C(=O)N1)C(N)=O [RFRRLRCKTRCRLKKI]

- MIC [6]: 2 µM (≈ 5.61 µg/mL)
- MIC [1]: 2 µM (≈ 5.61 µg/mL)
- MIC [2]: 2 µM (≈ 5.61 µg/mL)
- MIC (Escherichia coli UB1005): 4 µM (≈ 11.2 µg/mL)
- MIC [8]: 2 µM (≈ 5.61 µg/mL)
- MIC [7]: 4 µM (≈ 11.2 µg/mL)
Compound: CC[C@H](C)[C@H](NC(=O)[C@H](Cc1c[nH]c2ccccc12)NC(=O)[C@H](CCCCN)NC(=O)[C@H](CC(C)C)NC(=O)[C@@H](NC(=O)[C@H](CCCCN)NC(=O)CNC(=O)[C@@H](NC(=O)[C@@H](NC(=O)[C@H](CCCCN)NC(=O)[C@H](CC(C)C)NC(=O)[C@@H](NC(=O)[C@@H](NC(=O)[C@H](CCCN=C(N)N)NC(=O)[C@@H](NC(=O)[C@@H](NC(=O)[C@H](CCCCN)NC(=O)[C@H](CCCN=C(N)N)NC(=O)[C@H](CC(C)C)NC(=O)[C@@H](NC(=O)[C@H](CCCN=C(N)N)NC(=O)[C@H](Cc1ccccc1)NC(=O)[C@@H](NC(=O)CN)C(C)C)C(C)C)C(C)C)[C@@H](C)O)C(C)C)C(C)C)C(C)C)[C@@H](C)CC)C(C)C)C(N)=O [GVFRVLRKVTRVVLKVIGKVLKWI]

Compound: CC(C)C[C@H](NC(=O)[C@H](CCCCN)NC(=O)[C@H](CCCCN)NC(=O)[C@H](C)NC(=O)[C@H](CC(C)C)NC(=O)[C@H](CCCCN)NC(=O)[C@H](C)NC(=O)[C@H](CC(C)C)NC(=O)[C@H](CCCCN)NC(=O)[C@H](CCCCN)NC(=O)[C@H](C)NC(=O)[C@@H](N)Cc1ccccc1)C(N)=O [FAKKLAKLAKKL]
- MIC [9]: 73.6 µM (≈ 99.9 µg/mL)
- MIC [10]: 18.4 µM (≈ 25 µg/mL)

Compound: CC(C)C[C@H](NC(=O)[C@H](C)NC(=O)[C@H](CCCCN)NC(=O)[C@H](C)NC(=O)[C@H](CC(C)C)NC(=O)[C@H](CCCCN)NC(=O)[C@H](CCCCN)NC(=O)[C@H](C)NC(=O)[C@H](CC(C)C)NC(=O)[C@H](CCCCN)NC(=O)[C@H](CCCCN)NC(=O)[C@H](C)NC(=O)[C@@H](N)Cc1ccccc1)C(N)=O [FAKKLAKKLAKAL]
- MIC [9]: 10.5 µM (≈ 15 µg/mL)
- MIC [10]: 3.5 µM (≈ 5 µg/mL)

- MIC [1]: 2.5 µM (≈ 3.75 µg/mL)
- MIC [2]: 20 µM (≈ 30 µg/mL)
- MIC [3]: 5 µM (≈ 7.5 µg/mL)
- MIC [4]: 10 µM (≈ 15 µg/mL)
Compound: CC[C@H](C)[C@H](NC(=O)[C@H](CCCN=C(N)N)NC(=O)[C@@H](N)CCCCN)C(=O)N[C@@H](C)C(=O)N[C@@H](CCC(N)=O)C(=O)N[C@@H](CCCN=C(N)N)C(=O)N[C@H](C(=O)N[C@@H](CCCCN)C(=O)N[C@@H](C)C(=O)N[C@@H](Cc1ccccc1)C(=O)N[C@@H](CC(C)C)C(=O)N[C@@H](CCCN=C(N)N)C(=O)O)[C@@H](C)CC [KRIAQRIKAFLR]

Compound: CC(C)C[C@H](NC(=O)[C@H](CCCCN)NC(=O)[C@H](CCCCN)NC(=O)[C@H](C)NC(=O)[C@H](CC(C)C)NC(=O)[C@H](CCCCN)NC(=O)[C@H](C)NC(=O)[C@H](CC(C)C)NC(=O)[C@H](CC(C)C)NC(=O)[C@H](CCCCN)NC(=O)[C@H](C)NC(=O)[C@@H](N)Cc1ccccc1)C(N)=O [FAKLLAKLAKKL]
- MIC [9]: 7.44 µM (≈ 9.99 µg/mL)
- MIC [10]: 149 µM (≈ 200 µg/mL)

Compound: CC[C@H](C)[C@H](NC(=O)CNC(=O)[C@H](CC(C)C)NC(=O)[C@H](CCCCN)NC(=O)[C@H](C)NC(=O)[C@H](CC(C)C)NC(=O)[C@H](C)NC(=O)[C@@H](NC(=O)[C@H](CCCCN)NC(=O)[C@H](C)NC(=O)[C@@H](NC(=O)[C@@H](N)CCCCN)[C@@H](C)CC)C(C)C)C(=O)NCC(=O)N[C@@H](C)C(=O)N[C@H](C(=O)N[C@@H](CC(C)C)C(=O)N[C@@H](CCCCN)C(=O)N[C@H](C(=O)N[C@@H](CC(C)C)C(=O)N[C@H](C(=O)N[C@H](C(=O)NCC(=O)N[C@@H](CC(C)C)C(N)=O)[C@@H](C)O)[C@@H](C)O)C(C)C)C(C)C [KIAKVALAKLGIGAVLKVLTTGL]
- MIC [9]: 87.8 µM (≈ 200 µg/mL)
- MIC [10]: 87.8 µM (≈ 200 µg/mL)

- MIC (Bacillus subtilis): ≥ 35 µM
- MIC (Escherichia coli): 70 µM (≈ 114 µg/mL)
Compound: CC[C@H](C)[C@H](N)C(=O)N[C@@H](CC(N)=O)C(=O)N[C@@H](Cc1c[nH]c2ccccc12)C(=O)N[C@@H](CC(C)C)C(=O)N[C@@H](CCCCN)C(=O)N[C@@H](CC(C)C)C(=O)NCC(=O)N[C@@H](CCCCN)C(=O)N[C@@H](CCCCN)C(=O)N[C@@H](CCSC)C(=O)N[C@@H](CCSC)C(=O)N[C@@H](CO)C(=O)N[C@@H](C)C(=O)N[C@H](C(N)=O)[C@@H](C)CC [INWLKLGKKMMSAI]

Compound: CC(C)C[C@H](NC(=O)[C@H](C)NC(=O)[C@H](CCCCN)NC(=O)[C@H](CCCCN)NC(=O)[C@H](Cc1ccccc1)NC(=O)[C@H](C)NC(=O)[C@H](CCCCN)NC(=O)[C@H](C)NC(=O)[C@H](CC(C)C)NC(=O)[C@H](CC(C)C)NC(=O)[C@H](CCCCN)NC(=O)[C@H](C)NC(=O)[C@@H](N)Cc1ccccc1)C(N)=O [FAKLLAKAFKKAL]
- MIC [9]: 34.5 µM (≈ 50 µg/mL)
- MIC [10]: 10.4 µM (≈ 15 µg/mL)

- MIC (Bacillus subtilis): ≥ 87.5 µM
- MIC (Escherichia coli): 100 µM (≈ 163 µg/mL)
Compound: CC[C@H](C)[C@H](N)C(=O)N[C@@H](CC(N)=O)C(=O)N[C@@H](Cc1c[nH]c2ccccc12)C(=O)N[C@@H](CO)C(=O)N[C@@H](CO)C(=O)N[C@H](C(=O)N[C@@H](Cc1ccccc1)C(=O)N[C@@H](CCC(=O)O)C(=O)N[C@@H](CO)C(=O)N[C@H](C(=O)N[C@@H](CCCCN)C(=O)N[C@@H](CC(N)=O)C(=O)N[C@@H](CC(C)C)C(=O)N[C@H](C(N)=O)C(C)C)C(C)C)[C@@H](C)CC [INWSSIFESVKNLV]

- MIC (Staphylococcus aureus): 434 µM (≈ 1000 µg/mL)
- MIC (Candida albicans): > 400 µM
- MIC (Escherichia coli): 217 µM (≈ 500 µg/mL)
Compound: CC[C@H](C)[C@H](NC(=O)CNC(=O)[C@H](CCCCN)NC(=O)[C@@H](NC(=O)[C@H](CC(C)C)NC(=O)[C@H](CO)NC(=O)CNC(=O)[C@H](CC(C)C)NC(=O)CNC(=O)[C@H](C)NC(=O)[C@H](CCCCN)NC(=O)[C@H](CC(C)C)NC(=O)[C@@H](NC(=O)[C@H](CCC(=O)O)NC(=O)[C@H](CCCCN)NC(=O)[C@H](Cc1ccccc1)NC(=O)CN)C(C)C)C(C)C)C(=O)N1CCC[C@H]1C(=O)N[C@@H](C)C(=O)N[C@@H](Cc1cnc[nH]1)C(=O)N[C@H](C(=O)N[C@@H](C)C(=O)N[C@@H](CC(N)=O)C(N)=O)C(C)C [GFKEVLKAGLGSLVKGIPAHVAN]

- MIC (Candida albicans): 82 µM (≈ 144 µg/mL)
Compound: CC(C)C[C@H](NC(=O)[C@H](C)NC(=O)[C@H](CCCCN)NC(=O)[C@H](C)NC(=O)[C@H](CC(C)C)NC(=O)[C@H](C)NC(=O)[C@H](CCCCN)NC(=O)[C@H](C)NC(=O)[C@H](C)NC(=O)[C@H](C)NC(=O)[C@H](CCCCN)NC(=O)[C@H](C)NC(=O)[C@@H](NC(=O)[C@H](C)NC(=O)[C@H](CCCCN)NC(=O)[C@H](C)NC(=O)[C@H](CC(C)C)NC(=O)[C@@H](N)Cc1ccccc1)C(C)C)C(=O)O [FLAKAVAKAAAKALAKAL]
